Experiment [1] has as its system Mus musculus. As to the kind of experiment: Antidiabetic activity in C57BL/6J mouse assessed as reduction in blood glucose level at 1000 nmol/kg, sc administered as single dose 1 hr prior to glucose challenge measured up to 120 mins post glucose challenge by OGTT. Format: functional, organism-based.
For experiment [2], the target named is T1, Glucagon-like peptide 2 receptor (Homo sapiens, UniProt O95838).
T1 sequence (O95838 whole entry): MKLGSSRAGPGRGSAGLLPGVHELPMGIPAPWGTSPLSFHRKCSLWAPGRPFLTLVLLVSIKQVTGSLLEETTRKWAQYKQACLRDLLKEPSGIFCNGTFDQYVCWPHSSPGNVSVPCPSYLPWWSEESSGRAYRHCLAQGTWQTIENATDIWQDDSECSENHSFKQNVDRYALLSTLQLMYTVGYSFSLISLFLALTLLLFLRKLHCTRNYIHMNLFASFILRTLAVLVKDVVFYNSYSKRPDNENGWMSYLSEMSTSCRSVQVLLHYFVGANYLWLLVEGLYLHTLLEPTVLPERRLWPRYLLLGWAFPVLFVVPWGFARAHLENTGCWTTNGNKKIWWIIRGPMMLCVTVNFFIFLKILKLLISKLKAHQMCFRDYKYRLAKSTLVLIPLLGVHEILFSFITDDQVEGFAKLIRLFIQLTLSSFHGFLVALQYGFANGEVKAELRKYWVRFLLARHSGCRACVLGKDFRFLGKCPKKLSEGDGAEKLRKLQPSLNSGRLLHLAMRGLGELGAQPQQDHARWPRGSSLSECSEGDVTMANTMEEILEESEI
As to the kind of experiment: Agonist activity at human GLP2 receptor expressed in HEK293 cells assessed as increase in intracellular cAMP accumulation by AlphaScreen assay. Format: functional, cell-based. For orientation: cAMP levels reflect the balance of adenylyl cyclase and phosphodiesterase activity.

The test system of experiment [3] is Mus musculus. Kind of experiment: Antidiabetic activity in diet-induced obese C57BL/6J mouse assessed as decrease in fasting blood glucose level at 250 to 500 nmol/kg, sc bid for 14 days fasted overnight on day 11 to 12 and measured on day 14. Format: functional, organism-based.
Experiment [4] relates to Mus musculus. As to the kind of experiment: In vivo agonist activity at GLP2R in diet-induced obese C57BL/6J mouse assessed as increase in small intestinal wet weight at 250 to 500 nmol/kg, sc bid for 14 days. It counts as functional, organism-based.
The test system of experiment [5] is Mus musculus. As to the kind of experiment: Antidiabetic activity in diet-induced obese C57BL/6J mouse assessed as decrease in insulin resistance by measuring lower HOMA-IR index at 250 to 500 nmol/kg, sc bid for 14 days fasted overnight on day 11 to 12 and measured on day 14. It counts as functional, organism-based.
Experiment [6] relates to Mus musculus. Kind of experiment: In vivo agonist activity at GLP2R in diet-induced obese C57BL/6J mouse assessed as increase in large intestinal wet weight at 250 to 500 nmol/kg, sc bid for 14 days. Format: functional, organism-based.
Experiment [7] relates to Mus musculus. Kind of experiment: Antidiabetic activity in diet-induced obese C57BL/6J mouse assessed as decrease in plasma insulin level at 250 to 500 nmol/kg, sc bid for 14 days fasted overnight on day 11 to 12 and measured on day 14. Format: functional, organism-based.
Another experiment concerns Rattus norvegicus. As to the kind of experiment: In vivo agonist activity at GLP2R in Wistar rat assessed as increase in small intestinal wet weight administered sc once daily for 4 days measured on day 5. It counts as functional, organism-based.

Activity calls are given as the source filed them. The calls are words filed in the database; no cut-off is given here. Non-standard residues stand in square brackets, D forms with d. Residues, ends and D or L forms follow the SMILES beside them. Aib = CC(C)(N)C(=O)O

Usually EC50 stands for the concentration giving half of the maximal effect.

H-HGDGSFSDEMNTILDGQAARDFINWLIQTK-NH2: the outcome in the experiment with Mus musculus [1] was Active.

Regarding `CC[C@H](C)[C@H](NC(=O)[C@H](Cc1ccccc1)NC(=O)[C@H](CC(=O)O)NC(=O)[C@H](CCCNC(=N)N)NC(=O)[C@H](C)NC(=O)[C@H](C)NC(=O)[C@H](CCC(N)=O)NC(=O)[C@H](CC(N)=O)NC(=O)[C@H](CC(=O)O)NC(=O)[C@H](CC(C)C)NC(=O)[C@@H](NC(=O)[C@@H](NC(=O)[C@H](CC(N)=O)NC(=O)[C@H](CCSC)NC(=O)[C@H](CCC(=O)O)NC(=O)[C@H](CC(=O)O)NC(=O)[C@H](CO)NC(=O)[C@H](Cc1ccccc1)NC(=O)[C@H](CO)NC(=O)CNC(=O)[C@H](CC(=O)O)NC(=O)C(C)(C)N)[C@@H](C)O)[C@@H](C)CC)C(=O)N[C@@H](CC(N)=O)C(=O)N[C@@H](Cc1c[nH]c2ccccc12)C(=O)N[C@@H](CC(C)C)C(=O)N[C@H](C(=O)N[C@@H](CCC(N)=O)C(=O)N[C@H](C(=O)N[C@@H](CCCCN)C(=O)N[C@H](C(=O)N[C@H](C(=O)N[C@@H](CC(=O)O)C(=O)O)[C@@H](C)O)[C@@H](C)CC)[C@@H](C)O)[C@@H](C)CC` (H-[Aib]DGSFSDEMNTILDNQAARDFINWLIQTKITD-OH), in experiment [2], the EC50 worked out at 0.12 nM.

For H-HGDGSFSSELATILDGKAARDFINWLIQTKITD-OH, the outcome in the experiment with Mus musculus [3], with Mus musculus [4], in the experiment on Mus musculus [5], with Mus musculus [6] and with Mus musculus [7] was Active. Moreover, in the experiment on Rattus norvegicus, the Activity entry is “Dose-dependent effect”.
